Results taken from EP2368549A1, “Treating hand-foot syndrome and related pathologies using clonidine or its derivatives” (BioAlliance Pharma, priority 2010, dated 2011).

Legend:
[1] = clinical trials of breast or colorectal cancer; cited from earlier work
[2] = tested on: human skin organotypic culture; settings: histology of papillary and upper reticular dermis, 24h after substance P addition; clonidine treatment before and during substance P stimulation
Description: (§1) Human biopsy samples of clinically healthy human skin were obtained from patients undergoing plastic surgery. All patients gave their written informed consent before the surgery has carried out.
(§2) Skin biopsies were cut into 1 cm2 full thickness pieces and washed three times with antibiotics. Subcutaneous fat and lower dermis were mechanically removed. Skin fragments were transferred onto permeable polycarbonate membrane transwells (12 mm diameter, 12 µm pore size) in a well of 12 well plate (as previously described Boisnic S. et al., [1-3]) containing 700µl of defined medium (DMEM, antibiotics, hormones, pituitary extract, FCS). Explants were maintained at the interface between air and medium with the epithelium uppermost and the dermis exposed to the media by diffusion through the porous membrane.
(§3) Cohesion between skin fragments and inserts was obtained with a polyvinylsiloxane addition type silicone elastomer seal (coltène® president) in such a way that no skin retraction or lateral passage of the product towards the dermis was possible.
(§4) The culture was set up for 36 hours in a humidified atmosphere containing 5% CO2 at 37°C, and medium was daily change, culture supernatants were frozen at -80°C until further analysis.
At the end of culture all human skin fragments were formalin fixed and paraffin embedded. […]

[3] = tested on: TNFα; settings: culture supernatant, 24h after substance P addition; clonidine treatment before and during substance P stimulation (topical formulations 0.05%-1% on the epidermis)
Description: as §1, §2, §3, §4
The stimulation of the experimental oral human skin inflammatory process was done by the neuropeptide substance P (SP) [1]. […]

| Compound | overall incidence of HFS [1] | patients reporting a severe form (grade 3) of HFS [1] [%] | skin oedema [2] | vasodilatation [2] | proinflammatory cytokines TNFα level [3] |
| --- | --- | --- | --- | --- | --- |
| CCCCCOC(=O)Nc1nc(=O)n([C@@H]2O[C@H](C)[C@@H](O)[C@H]2O)cc1F [capecitabine, N4-pentyloxycarbonyl-5'-deoxy-5-fluorocytidine] | around 50% | 17 |  |  |  |
| Clc1cccc(Cl)c1NC1=NCCN1 [clonidine, N-(2,6-dichlorophenyl)-4,5-dihydro-1H-imidazol-2-amine] |  |  | decrease | decrease | decrease |
